Test results as given in patent US20260108547A1, “LEVERAGING L-FUCOSE-MEDIATED SIGNALING TO INDUCE MONOCYTE-DERIVED DENDRITIC CELL POLARIZATION” (H. LEE MOFFITT CANCER CENTER AND RESEARCH INSTITUTE, INC., priority 2022, published 2026).

How the values were obtained:
SM1 tumors = test: Flow cytometric profiling of tumors and draining lymph nodes, SM1 tumors in C57BL/6 mice fed ± L-fucose and treated ± anti-PD-1 (Table 2); format: in vivo, mouse
Method: (§1) Tumors of SW1 or SM1 melanoma cells from […] or C57BL/6 mice, respectively) were digested using 1× tumor digest buffer (0.5 mg/mL Collagenase I, 0.5 mg/mL Collagenase IV, 0.25 mg/mL Hyalyronidase V, 0.1 mg/mL DNAse I in HBSS (Millipore Sigma (St. Louis, MO)). Tumors were homogenized using the Miltenyi MACs dissociator. Red blood cells were lysed using ACK lysis buffer (Life Technologies, (Grand Island, NY)). Tumor homogenate cells were counted using a standard hemocytometer.
Total TILs were gated first to single cells (based on forward scatter height vs width, followed by side scatter height vs. width). Live cells were gated from the Zombie negative population from the population above. TILs were gated based on splenocyte size from a control spleen. Individual immune subpopulations were sub-gated from the total TIL population using the following staining criteria: CD3^+ for CD3^+ T cells; CD3^+/CD4^+/CD8^− for CD4^+T cells; CD3^+/CD4^−/CD8^+ for CD8^+ T cells, CD11c^+/CD11b^+ for DCs; either NK1.1 (for C57/BL6 mice) or DX5 (for C3H/HeJ) for NK cells; CD11b^+/GR1^+ for MDSC-like cells; and F4/80^+ for macrophages. Single-cell suspensions from tumor and spleen tissue were stained with Live/Dead Zombie NIR (Biolegend, (San Diego, CA)) at 1:1,000 in PBS for 20 min. […]

SW1 tumors = test: itIC and splenic flow cytometric profiling, SW1 tumor-bearing C3H/HeN mice; format: in vivo, mouse; details: oral L-fuc; SW1 model
Method: as §1
Total TILs were gated first to single cells (based on forward scatter height vs width, followed by side scatter height vs. width). Live cells were gated from the Zombie negative population from the population above. TILs were gated based on splenocyte size from a control spleen. Individual immune subpopulations were sub-gated from the total TIL population using the following staining criteria: CD3^+ for CD3^+ T cells; CD3^+/CD4^+/CD8^− for CD4^+T cells; CD3^+/CD4^−/CD8^+ for CD8^+ T cells, CD11c^+/CD11b^+ for DCs; either NK1.1 (for C57/BL6 mice) or DX5 (for C3H/HeJ) for NK cells; CD11b^+/GR1^+ for MDSC-like cells; and F4/80^+ for macrophages. Single-cell suspensions from tumor and spleen tissue were stained with Live/Dead Zombie NIR (Biolegend, (San Diego, CA)) at 1:1,000 in PBS for 20 min. Cell suspensions were spun down and stained with the following with antibodies at 0.5 μg/ml per antibody: APC anti-mouse CD3, Pacific Blue anti-mouse CD4, BV785 anti-mouse CD8, PerCP anti-mouse CD25, FITC anti-mouse F4/80, PeCy7 anti-mouse CD11c, PE anti-mouse NK1.1 or PE anti-mouse DX5, and PerCP-Cy5.5 anti-mouse CD11b. After staining, the cells were washed and fixed (2% formaldehyde), followed by another wash and flow cytometric analysis. The compensation controls were prepared using 0.5 μg/mL of each antibody with UltraComp eBeads, (ThermoFisher Scientific (Waltham, MA)). All samples were subject to flow cytometric profiling using a LSR Flow Cytometer (BD Biosciences (San Jose, CA)) and analysis as indicated using FlowJo software (BD Biosciences (San Jose, CA)).

HLA-DRB1 = test: Flow cytometric assessment of cell surface fucosylation and HLA-DRB1 in melanoma cells; format: cell-based, human; details: 250 μM, 72 h; flow cytometry
Method: (§2) Indicated cells were treated for 72 h with DMSO, 250 μM fucosyltransferase inhibitor (FUTi) (Millipore Sigma (St. Louis, MO)), or 250 μM of L-fucose (Biosynth (Oak Terrace, IL)). After 72 h, cells were stained with 0.1 μM PKH26 (Millipore Sigma (St. Louis, MO)) prior to fixation in 4% formaldehyde solution. The cells were stained with anti-HLA-DRB1 and fluorescein AAL, or anti-human or anti-mouse PD-L1 overnight. The following day the cells were washed 3 times prior to adding AlexaFluor 594 donkey anti-rabbit. Cells were washed 3 times and then subject to flow cytometric analyses using a FACSCalibur (BD Biosciences (San Jose, CA)). Samples were analyzed using FlowJo analysis software (BD Biosciences (San Jose, CA)). Median values of DRB1 and AAL were normalized to PKH26 values and statistical analysis was performed using GraphPad Prism.

PD-L1 = test: Flow cytometric assessment of cell surface PD-L1, human melanoma cells (WM793); format: cell-based
Method: as §2

moDCs = test: moDC cytokine production, qPCR and immunoblot of signaling pathways; format: cell-based
Source text: To determine if the changes in DC polarization and CD209 expression were associated with differential signaling changes in moDCs we analyzed known suppressive and stimulatory pathways by (FIG. 25A) cytokine production and (FIG. 25B) qPCR. […] (C) To elucidate the mechanism by which L-fucose was repressing immunosuppression in moDCs we preformed immunoblot analysis of several key signaling pathways in moDC activation of cells treated +/−L-fucose and +/−maturation via LPS. Additionally, we identified transcription factors that may play a role in altering the signaling and cytokine profiles of moDC to further validate the changes in immunomodulatory activity we observe.

How did the “average # of cDC2 cells” value (SM1 tumors; Day 21, lymph nodes) turn out when `C[C@H](O)[C@@H](O)[C@@H](O)[C@H](O)C=O` [L-fucose] was run?
The value was 13997.11 per 10^6 cells.

What about the “intratumoral CD4+T central and effector memory cells” value (SM1 tumors; SM1 model, L-fuc alone) of the same compound?
Its value is “increased”.

And the “CD4+ and CD8+ T cells, most increased subpopulation of total itICs” value (SW1 tumors)?
The value was “doubled”.

What about the “increased total itICs” value (SW1 tumors) of the same compound?
The value was 10-50 fold.

What about the splenic lymphocyte profiles (SW1 tumors) of the same compound?
The splenic lymphocyte profiles was “without altering splenic lymphocyte profiles”.

And the “cell surface HLA-DRB1” value (HLA-DRB1)?
The value was “increased”.

What about the cell surface fucosylation (HLA-DRB1) of the same compound?
Its cell surface fucosylation is “increased”.

And the “cell surface levels of PD-L1” value (PD-L1)?
The value was “does not alter”.

What about the “immunosuppressive signature of DCs” value (moDCs; cytokine production, qPCR) of the same compound?
Its value is “decreased immunosuppressive signature”.

And the “iNOS and p65 activation in moDC” value (moDCs; immunoblot, +/- LPS maturation)?
Its value is “decreased iNOS and p65 activation”.
